Assay results taken from patent US7186744B2, “Prostamides for the treatment of glaucoma and related diseases” (Allergan, Inc., priority 2003, dated 2007).
Marks after values point to notes of the source that are not given here.

System: dogs (Beagle)
Assay: Intraocular pressure studies by pneumatonometry in dogs
Assay type: in vivo
Conditions: conscious Beagle dogs, topical 25 μL drop, 0.03% drug
Procedure: Intraocular pressure studies were carried out for compounds 1–3 by pneumatonometry in dogs (Beagle) of both sexes (10–15 kg). The animals remained conscious throughout the study and were gently restrained by hand. Drugs were administered topically to one eye as a 25 μL volume drop comprising 0.03% drug, 0.1% polysorbate 80:10 mM TRIS, the other eye received 0.1% polysorbate 80:10 mM TRIS. Proparacaine (0.1%) was used for corneal anesthesia during tonometry. Intraocular pressure was determined just before drug administration and at 2, 4 and 6 hours thereafter on each day of the 5 day study. […] Drug was administered immediately after the first IOP reading.

[1] = 0 hrs (just before drug administration)

In the case of CCCCC[C@H](O)/C=C/[C@@H]1[C@@H](C/C=C\CCCC(=O)NCCc2ccc(O)c(O)c2)[C@@H](O)C[C@H]1O [Compound 2, (Z)-7-[(1R,2R,3R,5S)-3,5-Dihydroxy-2-((E)—(S)-3-hydroxy-oct-1-enyl)-cyclopentyl]-hept-5-enoic acid [2-(3,4-dihydroxy-phenyl)-ethyl]-amide], the “Change in Intraocular Pressure (IOP)” value [1] was 0, the “Change in Intraocular Pressure (IOP)” value (2 hrs) was −3.8* and the “Change in Intraocular Pressure (IOP)” value (4 hrs) was −3.2**. The “Change in Intraocular Pressure (IOP)” value (6 hrs) was −3.2** and the “Change in Intraocular Pressure (IOP)” value (24 hrs) was −1.1*.
In the case of CCCCC[C@H](O)/C=C/[C@@H]1[C@@H](C/C=C\CCCC(=O)NCCc2c[nH]c3ccc(O)cc23)[C@@H](O)C[C@H]1O [Compound 3, (Z)-7-[(1R,2R,3R,5S)-3,5-Dihydroxy-2-((E)—(S)-3-hydroxy-oct-1-enyl)-cyclopentyl]-hept-5-enoic acid [2-(5-hydroxy-1H-indol-3-yl)-ethyl]-amide], the “Change in Intraocular Pressure (IOP)” value [1] was 0, the “Change in Intraocular Pressure (IOP)” value (2 hrs) was −3.2* and the “Change in Intraocular Pressure (IOP)” value (4 hrs) was −5.8*. The “Change in Intraocular Pressure (IOP)” value (6 hrs) was −7.6** and the “Change in Intraocular Pressure (IOP)” value (24 hrs) was −2.2.
